The source of these data is patent US20220125754A1, “TREATING THE CAUSATIVE AGENT IN ADHESIOGENESIS” (Helmholtz Zentrum München - Deutsches Forschungszentrum Für …, priority 2019, published 2022).

Experiment [1] concerns heliocytes (stressed Met-5A mesothelial cells). Briefly: Protrusion development in desiccation-stressed Met-5A cells expressing membranous GFP (epi-fluorescence). Conditions: 10 μM, 24 hours, desiccation stress (FIG. 6B). Type of experiment: cell-based, human. How it is done:
(§1) FIG. 6: Single-cell transcriptomics of heliocytes. A) Overview of the Dropseq workflow. B) Epi-fluorescent representative images of Met-5A cells stably expressing membranous GFP, stressed with desiccation and treated with small-molecule compounds for 24 hours (10 μM). Scale bar, 10 μm. C) Desiccation shock induces small-molecule sensitive carrier-carrier aggregation as assessed with a high-throughput nanoluciferase assay. ID) Adhesion propagation assay (see methods) with nanoluciferase expressing Met-5A cells after treatment with small molecule inhibitors for 24 hours (10 μM). E) Cre-exchange transmission assay (see methods) with Cre-recombinase and Cre-dependent nanoluciferase expressing Met-5A cells after treatment with small molecule inhibitors for 24 hours (10 μM).
Met-5A cells were seeded on gelatin (Sigma Aldrich, #G1393) coated dishes. Once a confluent monolayer was established, stressed cell-covered beads were seeded onto the monolayer. For the inhibitory experiments, if not indicated otherwise, monolayer cells were pretreated with the indicated compound for 30 minutes in culture medium. Afterwards the adhesion assay was performed as described above.
Mesothelial protrusion analysis was performed using the Advanced weka segmentation Fiji plugin^37. It utilizes a collection of machine learning algorithms for segmentation. Specifically, pixel-based segmentation is based on image features annotated to different classes. Pixel samples were free drawn and assigned to respective classes, e.g. ‘filopodia’, ‘cell body’, or ‘background’. Subsequent rounds of training were performed to allot respective pixels and structures to its corresponding classes for improved segmentation. Training features, such as ‘Gaussian blur’, ‘Sobel filter’, ‘Hessian’, ‘Difference of Gaussians’ and ‘Membrane projections’ were applied along with default classifier ‘Fast Random Forest’. Other settings were kept as default (membrane thickness 1, membrane patch size 19, minimum sigma 1.0, and maximum sigma 16.0). The trained classifier and data were saved for analysis of other ‘stressed’ and ‘unstressed’ mesothelial datasets. A macro was written to automate the above steps for other datasets with pause for 5 seconds (wait(5000) function) after each step for smooth processing. Images from the segmented classes were extracted and subjected to post processing.
In order to identify underlying mechanisms of heliocyte transformation, differential gene expression analysis was performed using a likelihood-ratio test for single cell gene expression data^21. This identified 1644 genes that were regulated in stressed cells at one or more time points (FDR<10%). […]

A further experiment has as its system Met-5A cells. Briefly: Adhesion propagation assay (nanoluciferase expressing Met-5A cells). As to conditions: for transmissibility: 10 μM, 24 hours, adhesion propagation assay (FIG. 6D) and Cre-exchange transmission assay (FIG. 6E). In kind it is cell-based, human. How it is done:
[…] After 24 hours, unbound carriers were washed away and nanoluciferase luminescence was measured. This represents the initial stress-dependent transmitted adhesion.
[…] Carriers were then separated from the monolayer and placed on an unstressed Met-5A wild-type monolayer. After 24 hours, unbound beads were washed away and nanoluciferase luminescence was measured. This represents the first stress-independent transmitted adhesion.
Carriers were then separated from the monolayer and placed on unstressed cell-covered beads stably expressing nanoluciferase (AF1) for 3 hours. Carriers were then isolated once more and placed on an unstressed Met-5A monolayer stably expressing the dTomato-P2A-NanoLuciferase reporter construct (AF34). Unbound beads were then washed away and nanoluciferase luminescence was measured after 24 hours. This represents the second stress-independent transmitted adhesion.
This procedure was continued similarly for the consecutive third and fourth transmissions.
First, repeated consecutive mixing experiments were performed with nanoluciferase-expressing Met-5A cells to study the extent of adhesion propagation. When unstressed cells were exposed to heliocytes, and then separated, they were fully able to generate adhesions even though they had not themselves experienced stress (FIG. 3F). Pharmacological inhibition of HIF-1α signaling has been one of the few proposed intervention routes to reduce adhesion burden^16, thus it was tested to see whether the HIF-1α inhibitor echinomycin could inhibit transmissibility. […] Transmission occurred rapidly, as unstressed cells only had to be exposed to heliocytes for a total of 90 min for successful transmission to occur and allow them to form adhesions themselves (FIG. 3H). Second, two additional cell lines were generated, one expressing Cre recombinase and one expressing a stop codon flanked by two LoxP sites followed by a dTomato-P2A-Nanoluciferase. In this transmission assay, Cre recombinase only drives dTomato-P2A-Nanoluc expression if extensive cytoplasmic mixing occurs that allows Cre recombinase protein to be transferred and shuttled into the nucleus of the dTomato-P2A-Nanoluc cells. Indeed, extensive dTomato fluorescence was observed 3 hours after unstressed carriers were seeded onto a stressed monolayer (FIG. 3I). Under consecutive mixing conditions, like the propagation set-up, naive cells receiving cellular contents from heliocytes could in turn transmit to other cells independently from HIF-1α signaling, for a total of three rounds after the original stress stimulus (FIGS. 3J and K). Because cytoskeletal networks and membrane shuffling are extremely sensitive to shifts in available calcium^17, it was asked whether calcium signaling underlies heliocyte formation and filipodial extensions, using two independent approaches.

The test system of experiment [2] is Met-5A cells on microcarrier beads. The experiment can be described thus: High-throughput carrier-carrier adhesion assay (nanoluciferase). As to conditions: desiccation shock, high-throughput nanoluciferase assay (FIG. 6C). In kind it is cell-based, human. How it is done:
as §1
Cells were incubated with ice cold luciferase lysis buffer (25 mM Tris-HCL pH 7.8, 1% Triton X-100, 15 mM MgSO4, 4 mM EGTA, 1 mM DTT) for 20 minutes. Both assays were performed in a 96-wells plate format. Luciferase firefly substrate was dissolved in PBS, and consisted of 20 mM Tricine, 2.67 mM MgSO4, 0.1 mM EDTA, 33.3 mM DTT, 0.52 mM ATP, 0.27 mM Acetyl-CoA, 5 mM NaOH, […], and 0.47 mM D-Luciferin (Carl Roth, #CN24.3). For nanoluciferase, the substrate solution included 47.2 μM Coelenterazine (Carl Roth, #4094.4). Luminescence was detected after 5 minutes of substrate and lysate co-incubation using the TriStar^2 LB 942 Modular Multimode microplate reader (Berthold Technologies).
Met-5A cells were seeded together with Cytodex® 3 microcarrier beads (Sigma Aldrich, #03275) in a ratio of 500:1, and allowed to adhere and grow for 5 days. Cell-covered beads were then eluted from the culture dish using a 25 mL stripette. The resulting solution was strained through a 100 μm cell strainer (Corning, #352360). […] was induced by placing the bead-containing cell strainer under a running cell culture flow hood for 15 minutes. Afterwards, beads were eluted with assay medium and placed in a cultivation dish coated with HEMA silicate solution (Sigma Aldrich, #P3932), to prevent cell attachment. After indicated time points, carrier complexes were collected by filtering them through a 200 μm cell strainer, which allows individual carriers to pass, while trapping carrier complexes. Adhesions were measured in a high throughput manner through the use of Met-5A cells stably expressing luciferase (AF23) or nanoluciferase (AF1) using Integra Viaflo pipettes.

A further experiment concerns adhesion formation. Briefly: Murine adhesion model (total adhesion score). Type of experiment: in vivo, mice. Conditions: for adhesion formation (adhesion score): daily intraperitoneal injection, day 5 after injury (FIG. 9).
In experiment [3] the test system is caspase3 activity in heliocytes. The experiment can be described thus: Caspase3 activity reporter assay (nanoluciferase-caspase3 cleavage site-degradation peptide). In kind it is cell-based, human. Conditions: stressed mesothelial cells (heliocytes), compared to control (FIG. 12). How it is done:
Then, determination of caspase3 activity in heliocytes was performed. Cells stably expressing a nanoluciferase-caspase3-cleaving-site-degredation-peptide (FIG. 12) were grown on beads seeded onto a Met-5A monolayer. After 24 h nanoluciferase activity was determined. The degradation peptide leads to constitutive degradation of nanoluciferase, active caspase3 cleaves the protein linker, thus removing the degradation signal, leading to increased nanoluciferase amount.
(§2) In order to test listed inhibitor treatments for potential unwanted side effects, in vitro as well as in vivo apoptosis readouts were performed. […] Next, fragmented DNA amounts in the in vitro adhesions were determined, staurosporine representing as the positive control. […] Apoptosis signaling cascades dependent on caspase3 protease activity. To screen caspase3 activity in a high throughput manner, a new functional screening assay was developed. The assay is based on a nanoluciferase fused to a degradation signaling peptide interlinked with caspase3 cleavage sites. Once activated, caspase3 cleaves protein linker, removes the degradation signal and prevents proteasomal digestion of the nanoluciferase.

For experiment [4], the system named is stressed mesothelial cells (heliocytes). The experiment can be described thus: Apoptosis assay: fragmented DNA (Cell Death Detection ELISA) in in vitro bead assay. In kind it is cell-based, human. Conditions: 10 μM, stressed mesothelial cells (FIG. 11). As for the experimental part: FIG. 11: Apoptosis Assay. Measurement of fragmented DNA as indicator for apoptosis after 5 days having applied CK666, Golgicide A, Rhosin, Bepridil, Heat shock protein inhibitor 1 (HIS-1) using the in vitro bead assay. Stautosporin serves as a positive control.
Met-5A cells were seeded on gelatin (Sigma Aldrich, #G1393) coated dishes. Once a confluent monolayer was established, stressed cell-covered beads were seeded onto the monolayer. For the inhibitory experiments, if not indicated otherwise, monolayer cells were pretreated with 10 μM of indicated compounds for 30 minutes in culture medium. After 24 h fragmented DNA was determined via Cell Death Detection […] (Sigma Aldrich, #11774425001).
as §2

Method for adhesion formation: Small molecule inhibitors were solubilized in sterile 2% hydroxyethyl-cellulose (Sigma Aldrich, #09368). Compounds were being added immediately prior to surgery, and were derived from a 100-150 mM stock solution to minimize the final DMSO content. The final solution (200 μL per 30 g body weight) was sandwiched between the visceral and parietal layer of the injured cecum and peritoneum respectively.
Mice were anesthetized by an intraperitoneal injection of a Medetomidin (500 μg/kg), Midazolam (5 mg/kg) and Fentanyl (50 μg/kg) cocktail, hereafter referred to as MMF. Monitoring anesthetic depth was assessed by toe reflex. Eyes were covered with Bepanthen to avoid dehydration, and the abdomen was shaved and disinfected with betadine and sterile phosphate buffered saline (PBS). Animals were kept on their backs on a heating plate at 37° C. A midline laparotomy (1-1.5 cm) was performed through the skin and peritoneum. Four hooks, positioned around the incision and fixed to a retractor and magnetic base plate, allowed for clear access to the abdominal cavity. A small surgical brush was used to gently abrade the peritoneal surface and apposing cecal surface. Two surgical knots using 4-0 silk sutures (Ethicon) were then placed through the serosal surface of the peritoneum. A cotton swab was used to gently apply a dab of talc powder (Sigma Aldrich, #243604) onto the injured surfaces. Before closure of the incision, buprenorphine (0.1 mg/kg) was pipetted in the abdomen to allow for initial post-surgical analgesia. For long-term analgesia, metamizol (Novalgin, 200 mg/kg) was provided through daily injection. The peritoneum and skin were closed with two separate 4-0 silk sutures (Ethicon). Upon closure of the incision, mice were woken up by antagonizing the MMF solution through a subcutaneous cocktail injection of Atipamezol (1 mg/kg) and Flumazenil (0.25 mg/kg). Mice were allowed to recover on a heating pad, after which they were housed together (females) or individually (males), and followed for 1-5 days. Adhesions were scored using gross morphological features that indicated adhesion development. Five individual adhesion features were scored (see table below) that together provided a cumulative value that determined the total adhesion score. With this system, complete absence of adhesions were scored as 0, whereas the maximum adhesion score was 15.
Mice were anesthetized by an intraperitoneal injection of a Medetomidin (500 μg/kg), Midazolam (5 mg/kg) and Fentanyl (50 μg/kg) cocktail, hereafter referred to as MMF. Monitoring anesthetic depth was assessed by toe reflex. Eyes were covered with Bepanthen to avoid dehydration, and the abdomen was shaved and disinfected with betadine and sterile phosphate buffered saline (PBS). Animals were kept on their backs on a heating plate at 37° C. A midline laparotomy (1-1.5 cm) was performed through the skin and peritoneum. Four hooks, positioned around the incision and fixed to a retractor and magnetic base plate, allowed for clear access to the abdominal cavity. A small surgical brush was used to gently abrade the peritoneal surface and apposing cecal surface. Two surgical knots using 4-0 silk sutures (Ethicon) were then placed through the serosal surface of the peritoneum. A cotton swab was used to gently apply a dab of talc powder (Sigma Aldrich, #243604) onto the injured surfaces. Before closure of the incision, buprenorphine (0.1 mg/kg) was pipetted in the abdomen to allow for initial post-surgical analgesia. […]

Take `CC(C)COCC(CN(Cc1ccccc1)c1ccccc1)N1CCCC1` (stereo not drawn) [Bepridil]: the “protrusion development in heliocytes” value in experiment [1] is “completely blocked”. The transmissibility result with Met-5A cells is “completely blocked”. Besides, the “adhesion formation (carrier-carrier aggregation)” value in experiment [2] was “completely blocked”. Further, the “adhesion formation (adhesion score)” value in the experiment on adhesion formation is recorded as “robustly inhibited adhesion formation”.

`Cc1[nH]c2ccccc2c1CCNC(=O)c1ccccc1F` [CK-666]: the “protrusion development in heliocytes” value in experiment [1] is “completely blocked”. Moreover, in the experiment with Met-5A cells, the transmissibility entry was “completely blocked”. Further, the “adhesion formation (carrier-carrier aggregation)” value in experiment [2] is given as “completely blocked”. Also, in the experiment on adhesion formation, the “adhesion formation (adhesion score)” value is “robustly inhibited adhesion formation”.

As to `Fc1cc(F)c2c(c1)C1C=CCC1C(c1cccnc1)N2` (stereo not drawn) [Golgicide A], in experiment [1], the “protrusion development in heliocytes” value is listed as “completely blocked”. For the same compound, the transmissibility entry in the experiment on Met-5A cells is listed as “completely blocked”. Besides, in experiment [2], the “adhesion formation (carrier-carrier aggregation)” value is “completely blocked”. In addition, the “adhesion formation (adhesion score)” value in the experiment with adhesion formation is listed as “robustly inhibited adhesion formation”.

For the compound `CNc1ccc([N+](=O)[O-])c(Nc2ccc3[nH]ncc3c2)n1` [KRIBB11], the adhesion score entry in the experiment on adhesion formation (single application of 10 nM in 2% cellulose, topical, 5 days after injury (FIG. 16)) was “shows no effect”.

As for `CN[C@@H]1C[C@H]2O[C@@](C)([C@@H]1OC)n1c3ccccc3c3c4c(c5c6ccccc6n2c5c31)C(=O)NC4` [Staurosporine], the “caspase3 activity (nanoluciferase activity of reporter)” value in experiment [3] is recorded as “enhanced nanoluciferase activity”.

Turning to `CS[C@H]1SC[C@H]2C(=O)N(C)[C@@H](C(C)C)C(=O)OC[C@@H](NC(=O)c3cnc4ccccc4n3)C(=O)N[C@@H](C)C(=O)N(C)[C@@H]1C(=O)N(C)[C@@H](C(C)C)C(=O)OC[C@@H](NC(=O)c1cnc3ccccc3n1)C(=O)N[C@@H](C)C(=O)N2C` [echinomycin], in the experiment on Met-5A cells (HIF-1α inhibition (FIG. 3G)), the initial desiccation-induced transmission entry is “could be prevented”.

With Rhosin, the “protrusion development in heliocytes” value in experiment [1] is recorded as “completely blocked”. The transmissibility entry with Met-5A cells is recorded as “completely blocked”. Further, the “adhesion formation (carrier-carrier aggregation)” value in experiment [2] is given as “completely blocked”. In the experiment with adhesion formation, the “adhesion formation (adhesion score)” value is given as “robustly inhibited adhesion formation”. For the same compound, in experiment [3], the “caspase3 activity (nanoluciferase activity of reporter)” value is listed as “higher caspase3 activity”. Further, the “fragmented DNA (indicator for apoptosis)” value in experiment [4] is on record as “significantly more fragmented DNA”.
